PubChem BioAssay AID330 (DTP/NCI, 2004)
Values joined by “and” are separate entries in the source; they are usually repeats but may differ in a detail not shown here. Equal entries are not always repeated. Inconclusive results and toxic doses are left out. How the source made its calls: active means survival T/C of 150% or more; inactive means T/C below 125% in these data.

Test system: P388 leukemia ip, CD2F1 mice, survival T/C
Experiment: NCI In Vivo Anticancer Drug Screen. Data for tumor model P388 Leukemia (intraperitoneal) in CD2F1 (CDF1) mice
Conditions: endpoint: median survival time, higher = longer survival
Outline: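 Mice carrying the transplanted tumor received test compound or vehicle. Survival was recorded in each group, and the value is the treated-group measurement divided by that of the vehicle-treated control group.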

[1] = dose: 50.0 mg/kg/injection, schedule: Q01DX005 (ip), vehicle: saline with Tween-80
[2] = dose: 100.0 mg/kg/injection, schedule: Q01DX005 (ip), vehicle: saline with Tween-80
[3] = dose: 200.0 mg/kg/injection, schedule: Q01DX005 (ip), vehicle: saline with Tween-80
[4] = dose: 50.0 mg/kg/injection, schedule: Q01DX005 (ip), vehicle: Klucel (hydroxypropylcellulose) (HPC)
[5] = dose: 50.0 mg/kg/injection, schedule: Q01DX009 (ip), vehicle: saline with Tween-80
[6] = dose: 100.0 mg/kg/injection, schedule: Q01DX009 (ip), vehicle: saline with Tween-80
[7] = dose: 100.0 mg/kg/injection, schedule: Q04DX003 (ip), vehicle: saline with Tween-80
[8] = dose: 200.0 mg/kg/injection, schedule: Q04DX003 (ip), vehicle: saline with Tween-80
[9] = dose: 400.0 mg/kg/injection, schedule: Q04DX003 (ip), vehicle: saline with Tween-80
[10] = dose: 100.0 mg/kg/injection, schedule: Q01DX005 (ip), vehicle: Klucel (hydroxypropylcellulose) (HPC)
[11] = dose: 200.0 mg/kg/injection, schedule: Q01DX005 (ip), vehicle: Klucel (hydroxypropylcellulose) (HPC)
[12] = dose: 100.0 mg/kg/injection, schedule: Q01DX009 (ip), vehicle: Klucel (hydroxypropylcellulose) (HPC)
[13] = dose: 200.0 mg/kg/injection, schedule: Q01DX009 (ip), vehicle: Klucel (hydroxypropylcellulose) (HPC)
[14] = dose: 400.0 mg/kg/injection, schedule: Q01DX009 (ip), vehicle: Klucel (hydroxypropylcellulose) (HPC)
[15] = dose: 200.0 mg/kg/injection, schedule: Q01DX009 (ip), vehicle: saline with Tween-80
[16] = dose: 50.0 mg/kg/injection, schedule: Q01DX009 (ip), vehicle: saline
[17] = dose: 100.0 mg/kg/injection, schedule: Q01DX009 (ip), vehicle: saline
[18] = dose: 200.0 mg/kg/injection, schedule: Q01DX009 (ip), vehicle: saline
[19] = dose: 100.0 mg/kg/injection, schedule: Q04DX003 (ip), vehicle: saline
[20] = dose: 200.0 mg/kg/injection, schedule: Q04DX003 (ip), vehicle: saline
[21] = dose: 50.0 mg/kg/injection, schedule: Q01DX009 (ip), vehicle: Klucel (hydroxypropylcellulose) (HPC)

Measured: T/C

CCOS(=O)(=O)CC(C)C(C)C (stereo not given)
inactive: [1] 98 % of control | [2] 104 % of control | [3] 101 % of control

CC(=O)C1CC2CN(C(=O)OCC(Cl)(Cl)Cl)C1C=C2c1ccccc1 (stereo not given)
inactive: dose: 100.0 mg/kg/injection, schedule: Q04DX002 (ip), vehicle: saline 91 % of control | dose: 200.0 mg/kg/injection, schedule: Q04DX002 (ip), vehicle: saline 94 % of control | dose: 400.0 mg/kg/injection, schedule: Q04DX002 (ip), vehicle: saline 94 % of control

CC1(C)CCC2(C(=O)OC3OC(CO)C(O)C(O)C3O)CCC3(C)C(=CCC4C5(C)CCC(OC6OC(CO)C(O)C(O)C6O)C(C)(C)C5CCC43C)C2C1 (stereo not given)
inactive: dose: 3.12 mg/kg/injection, schedule: Q01DX005 (ip), vehicle: Klucel (hydroxypropylcellulose) (HPC) 98 % of control | dose: 6.25 mg/kg/injection, schedule: Q01DX005 (ip), vehicle: Klucel (hydroxypropylcellulose) (HPC) 104 % of control | dose: 12.5 mg/kg/injection, schedule: Q01DX005 (ip), vehicle: Klucel (hydroxypropylcellulose) (HPC) 104 % of control | dose: 25.0 mg/kg/injection, schedule: Q01DX005 (ip), vehicle: Klucel (hydroxypropylcellulose) (HPC) 95 % of control | [4] 102 % of control

O=C(SCc1oc2ccccc2c1O)c1ccccc1
inactive: dose: 12.5 mg/kg/injection, schedule: Q01DX009 (ip), vehicle: saline with Tween-80 103 % of control | dose: 25.0 mg/kg/injection, schedule: Q01DX009 (ip), vehicle: saline with Tween-80 104 % of control | [5] 112 % of control | [6] 94 % of control

CCN(CC)CCN1C=CC(=C2C(=O)c3ccccc3C2=O)C=C1
inactive: dose: 60.0 mg/kg/injection, schedule: Q01DX005 (ip), vehicle: Klucel (hydroxypropylcellulose) (HPC) 99 % of control | dose: 120.0 mg/kg/injection, schedule: Q01DX005 (ip), vehicle: Klucel (hydroxypropylcellulose) (HPC) 101 % of control | dose: 240.0 mg/kg/injection, schedule: Q01DX005 (ip), vehicle: Klucel (hydroxypropylcellulose) (HPC) 99 % of control

Cc1c2cnccc2c(C)c2c1c1ccccc1n2CCOC(=O)c1ccccc1
inactive: [7] 95 % of control | [8] 86 % of control | [9] 86 % of control

O=C(Nc1ccccc1C(=O)OCCCl)NN1CCCCCC1
inactive: [4] 107 % of control | [10] 100 % of control | [11] 98 % of control

C=C1C2CCC3C(CCC4C5(C)CCCC43CN3CCOC35)(C2)C1O (stereo not given)
inactive: dose: 1.0 mg/kg/injection, schedule: Q01DX009 (ip), vehicle: Klucel (hydroxypropylcellulose) (HPC) 95 % of control | dose: 2.0 mg/kg/injection, schedule: Q01DX009 (ip), vehicle: Klucel (hydroxypropylcellulose) (HPC) 97 % of control | dose: 4.0 mg/kg/injection, schedule: Q01DX009 (ip), vehicle: Klucel (hydroxypropylcellulose) (HPC) 98 % of control | dose: 8.0 mg/kg/injection, schedule: Q01DX009 (ip), vehicle: Klucel (hydroxypropylcellulose) (HPC) 97 % of control

CCOC(=O)CCC1=C(C)c2cc3[n-]c(cc4nc(cc5[n-]c(cc1n2)c(CCC(=O)OCC)c5C)C=C4C)cc3C.[Cu+2]
inactive: [4] 101 % of control | [10] 97 % of control | [11] 100 % of control

CCCCCCN(CCCCCC)CC(O)c1ccc(Br)c2ccccc12 (stereo not given)
inactive: [1] 93 % of control | [2] 93 % of control | [3] 88 % of control

CCCCCCCCCCCCCCCCS(=O)(=O)c1ccc(NN)cc1
inactive: [12] 90 % of control | [13] 89 % of control | [14] 87 % of control

COC(=O)C(Cc1ccc(O)cc1)NS(=O)(=O)Cc1ccccc1 (stereo not given)
inactive: [5] 107 % of control | [6] 96 % of control | [15] 99 % of control

CCc1ccc[n+](CCC2CNc3ccccc32)c1 (stereo not given)
inactive: dose: 12.5 mg/kg/injection, schedule: Q01DX005 (ip), vehicle: saline 98 % of control | dose: 25.0 mg/kg/injection, schedule: Q01DX005 (ip), vehicle: saline 100 % of control | dose: 50.0 mg/kg/injection, schedule: Q01DX005 (ip), vehicle: saline 100 % of control and 110 % of control

OC1(c2cc3ccccc3c3ccccc23)c2ccccc2-c2ccccc21
inactive: [1] 98 % of control | [2] 100 % of control | [3] 100 % of control

CCOC(=O)C(=Cc1ccc(OC)c(OC)c1)C(=O)OCC
inactive: [1] 110 % of control | [2] 102 % of control | [3] 103 % of control

CCOC1CN(C(=O)ON)N1C(=O)ON (stereo not given)
inactive: [16] 109 % of control | [17] 107 % of control | [18] 89 % of control

S=c1sc2ccccc2n1CCNc1ccccc1
inactive: [6] 90 % of control | [7] 90 % of control | [15] 90 % of control | [8] 95 % of control | dose: 400.0 mg/kg/injection, schedule: Q01DX009 (ip), vehicle: saline with Tween-80 86 % of control | [9] 104 % of control

CC1=CCC2(C)CCC(C(C)C)C2(O)CC1 (stereo not given)
inactive: dose: 50.0 mg/kg/injection, schedule: Q04DX003 (ip), vehicle: saline 104 % of control | [19] 90 % of control | [20] 100 % of control

CCCC(=O)Nc1ncc([N+](=O)[O-])s1
inactive: [5] 95 % of control | [6] 100 % of control | [15] 90 % of control

CCOC(=O)NC(NC(=O)OCC)c1ccc(OC)cc1
inactive: [19] 100 % of control | [20] 91 % of control | dose: 400.0 mg/kg/injection, schedule: Q04DX003 (ip), vehicle: saline 94 % of control

Clc1c2ccccc2[se][n+]1-c1ccccc1
inactive: dose: 12.5 mg/kg/injection, schedule: Q01DX009 (ip), vehicle: Klucel (hydroxypropylcellulose) (HPC) 109 % of control | dose: 25.0 mg/kg/injection, schedule: Q01DX009 (ip), vehicle: Klucel (hydroxypropylcellulose) (HPC) 111 % of control | [21] 115 % of control

CC1=C/C(=C(\c2cc(C)c(O)c(C(=O)O)c2)c2c(Cl)ccc(S(=O)(=O)O)c2Cl)C=C(C(=O)O)C1=O
inactive: dose: 25.0 mg/kg/injection, schedule: Q01DX009 (ip), vehicle: saline 102 % of control | [16] 102 % of control and 91 % of control | [17] 108 % of control and 95 % of control | [18] 98 % of control and 106 % of control

Nc1nc2ccccc2[nH]1
inactive: dose: 20.0 mg/kg/injection, schedule: Q04DX003 (ip), vehicle: other 101 % of control | dose: 20.0 mg/kg/injection, schedule: Q04DX003 (oral), vehicle: other 102 % of control | dose: 40.0 mg/kg/injection, schedule: Q04DX003 (ip), vehicle: other 100 % of control | dose: 40.0 mg/kg/injection, schedule: Q04DX003 (oral), vehicle: other 100 % of control | dose: 80.0 mg/kg/injection, schedule: Q04DX003 (ip), vehicle: other 101 % of control | dose: 80.0 mg/kg/injection, schedule: Q04DX003 (oral), vehicle: other 102 % of control | dose: 160.0 mg/kg/injection, schedule: Q04DX003 (ip), vehicle: other 99 % of control | dose: 160.0 mg/kg/injection, schedule: Q04DX003 (oral), vehicle: other 102 % of control

C[As](C)SCC1OC(n2ccc(=O)[nH]c2=O)C2OC(C)(C)OC12 (stereo not given)
inactive: dose: 12.5 mg/kg/injection, schedule: Q01DX009 (ip), vehicle: distilled water + Tween-80 103 % of control | dose: 25.0 mg/kg/injection, schedule: Q01DX009 (ip), vehicle: distilled water + Tween-80 110 % of control | dose: 50.0 mg/kg/injection, schedule: Q01DX009 (ip), vehicle: distilled water + Tween-80 116 % of control | dose: 100.0 mg/kg/injection, schedule: Q01DX009 (ip), vehicle: distilled water + Tween-80 113 % of control

O=C(Nc1ccccc1)Nc1ccc(OCc2ccccc2)cc1
inactive: [5] 90 % of control | [6] 88 % of control | [15] 114 % of control

Cc1ccc(C(C)C)c(OC(=O)Nc2ccc(Cl)cc2)c1
inactive: [21] 100 % of control | [12] 87 % of control | [13] 95 % of control | [14] 92 % of control

CCCC(=O)N1CCCCC1CC (stereo not given)
inactive: dose: 100.0 mg/kg/injection, schedule: Q01DX001 (ip), vehicle: saline 100 % of control | dose: 200.0 mg/kg/injection, schedule: Q01DX001 (ip), vehicle: saline 102 % of control
